Results: US9187486B2 (AMGEN INC., priority 2011, dated 2015)
Counter-ions that a name gives are not always drawn. Like-named read-outs stand apart in the source and are kept apart here.

Key:
Pim-1 = Pim-1 (Homo sapiens (Human), UniProt P11309); experiment: Pim enzyme assay (HTRF, phosphorylation of biotinylated-BAD (S112) peptide), Pim-1; format: biochemical
Excerpt: (§1) Full-length human cDNAs encoding Pim-1 (MGC ID 3913552) or Pim-2 (IMAGE ID 5092935) were purchased from Invitrogen, Carlsbad, Calif. These cDNAs were used as templates in PCR reactions to produce full-length DNA clones of the PIMs. Oligonucleotide PCR primers for Pim-1 were 5′-[…]-3′ and 5′-[…]-3′. Oligonucleotide PCR primers for Pim-2 were 5′-[…]-3′ and 5′-[…]-3′. PCR products were digested with BclI and EcoRI for Pim-1 and BamHI and EcoRI for Pim-2 and ligated into a modified baculovirus transfer vector (pFastBac 1) cleaved with BamHI and EcoRI. For bacterial expression, the same cleaved PCR products encoding Pim-1 or Pim-2 were ligated into a modified E. coli expression vector pET28(a) cleaved with BamHI and EcoRI. Amino-terminal hexahistidine tags followed by a thrombin cleavage site were previously added to the vectors using standard methods of molecular biology. Recombinant baculoviruses expressing Pim-1 or Pim-2 were made using standard methods (Fastbac manual, Invitrogen, Carlsbad, Calif.). Infection of Sf9 cells was done at an m.o.i. of greater than 5 for 24-48 h. Cells were harvested by centrifugation and frozen at −80 C. For E. coli expression, cells carrying pET28-His6-Th-Pim-1 or pET28-His6-Th-Pim-2 were picked from a single colony and grown o/n in LB media. The o/n culture was used to inoculate a 2 liter flask with 500 mL media. This was grown o/n and used to inoculate 15-20 liters of Terrific Broth in a New Brunswick Scientific fermentor. The E. coli were grown at 37° C. to and OD600>1.6. The temperature was dropped to 18° C. and o/n expression was induced with 0.5 mM IPTG. Cells were harvested by centrifugation and frozen at −80° C.
(§2) The frozen cell pellets were thawed by stirring in chilled lysis buffer (0.05 M HEPES, pH 8.0, 0.25 M NaCl, 0.01 M 2-mercaptoethanol, 10% (w/v) glycerol, 0.5% (v/v) protease inhibitor cocktail (Sigma P-8340) at a ratio of 1 L/200 g cells until homogeneous. The thawed suspension was applied to a microfluidizer at 10,000 PSI to disrupt the cells and the whole lysates were clarified by centrifugation at 50,000×g for 90 min, 4° C. Imidazole was added to the clarified lysate to a final concentration of 2.5 mM and the lysate was mixed with 10 mL of Talon resin (Clontech) and the slurry rocked gently overnight at 4° C. The slurry was centrifuged at 1,000×g for 5 min, the supernatant decanted, and the resin suspended in 40 mL of lysis wash buffer (lysis buffer at 0.75 M NaCl). This step was repeated 3× and the resin was transferred to a 2.5 cm glass column. Ten column volumes of wash buffer (0.05 M HEPES, pH 8.0, 0.1 M NaCl, 0.01 M 2-mercaptoethanol, 10% (w/v) glycerol) were applied to the resin followed by 10 column volumes of elution buffer (0.05 M HEPES, pH 8.0, 0.25 M NaCl, 0.01 M 2-mercaptoethanol, 10% (w/v) glycerol, 0.1 M imidazole). Fractions were analyzed by SDS-PAGE and those containing the protein of interest were pooled and concentrated. The concentrated protein was applied to an Amersham Superdex 75 (XK 26/60) column equilibrated in 0.025 M Tris-HCl, pH 7.5, 0.1 M NaCl, 0.01 M 2-mercaptoethanol, 10% (w/v) glycerol. […] Fractions containing the monomeric protein of interest were pooled, concentrated to ˜2 mg/mL, and stored at −80° C.
(§3) The phosphorylation of biotinylated-BAD (S112) peptide by full length recombinant Pim-1, Pim-2, or Pim-3 protein was detected with streptavidin:Allophycocyanin (APC) conjugate and a europium (Eu) labeled antibody directed against phosphorylated-BAD (S112). Excitation of Eu by a high energy laser light (337 nm) leads to a transfer of energy to the APC molecule, and results in an emission at 665 nm. The fluorescence is directly proportional to the amount of phosphorylated BAD peptide present in the reaction.

Pim-2 = Pim-2 (Homo sapiens (Human), UniProt Q9P1W9); experiment: Pim enzyme assay (HTRF, phosphorylation of biotinylated-BAD (S112) peptide), Pim-2; format: biochemical
Excerpt: as §1, §2, §3

[1] = full length recombinant Pim-1, biotinylated-BAD (S112) peptide, HTRF, 96-well, read-out: Pim-1 IC50 IP
[2] = full length recombinant Pim-1, biotinylated-BAD (S112) peptide, HTRF, read-out: Pim_1_IC50
[3] = full length recombinant Pim-2, biotinylated-BAD (S112) peptide, HTRF, read-out: Pim2_IC50
[4] = full length recombinant Pim-2, biotinylated-BAD (S112) peptide, HTRF, 96-well, read-out: Pim-2 IC50 IP

Sequence of Pim-1 (P11309 whole entry): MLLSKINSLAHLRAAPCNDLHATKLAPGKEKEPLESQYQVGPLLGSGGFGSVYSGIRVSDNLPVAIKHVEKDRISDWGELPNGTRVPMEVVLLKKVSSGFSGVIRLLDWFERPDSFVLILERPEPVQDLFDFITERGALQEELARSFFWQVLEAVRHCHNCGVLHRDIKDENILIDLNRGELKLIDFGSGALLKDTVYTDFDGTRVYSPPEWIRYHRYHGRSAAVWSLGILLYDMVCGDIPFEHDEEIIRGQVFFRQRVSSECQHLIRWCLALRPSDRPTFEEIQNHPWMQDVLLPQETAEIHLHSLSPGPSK
Sequence of Pim-2 (Q9P1W9 whole entry): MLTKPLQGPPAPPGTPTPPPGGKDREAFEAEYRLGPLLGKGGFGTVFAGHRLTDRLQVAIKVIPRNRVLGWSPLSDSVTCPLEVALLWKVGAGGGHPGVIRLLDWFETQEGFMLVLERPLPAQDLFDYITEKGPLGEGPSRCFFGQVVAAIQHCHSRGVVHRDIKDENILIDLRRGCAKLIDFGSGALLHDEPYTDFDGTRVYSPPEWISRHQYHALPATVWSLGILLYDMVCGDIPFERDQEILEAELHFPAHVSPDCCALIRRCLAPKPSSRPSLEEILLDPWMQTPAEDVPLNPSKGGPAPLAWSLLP

| IC50 (Pim-1; [1]) | IC50 (Pim-1; [2]) | IC50 (Pim-2; [3]) | SMILES | also measured |
| --- | --- | --- | --- | --- |
| 66.9 nM | – | – | O[C@@H]1CCN(c2ccncc2Nc2ncc3ccc(-c4c(F)cccc4F)nn23)C[C@H]1O (single isomer, unassigned) [Example 34, 1-(3-((2-(2,6-difluorophenyl)imidazo[1,5-b]pyridazin-7-yl)amino)-4-pyridinyl)-3,4-trans-piperidinediol] | – |
| 30.5 nM | – | – | N[C@@H]1C=C(c2ccncc2Nc2ncc3ccc(-c4c(F)cccc4F)nn23)CCC1 (single isomer, unassigned) [Example 84, N-(4-(3-aminocyclohex-1-en-1-yl)pyridin-3-yl)-2-(2,6-difluorophenyl)imidazo[1,5-b]pyridazin-7-amine tris(2,2,2-trifluoroacetate)] | – |
| – | 54 nM | 154 nM | c1cc(N2CCNCC2)c(Nc2ncc3ccc(-c4nccs4)nn23)cn1 [Example 3, N-(4-(1-piperazinyl)-3-pyridinyl)-2-(1,3-thiazol-2-yl)imidazo[1,5-b]pyridazin-7-amine] | – |
| – | 107 nM | 640 nM | Clc1ccccc1-c1ccc2cnc(Nc3cnccc3N3CCNCC3)n2n1 [Example 5, 2-(2-chlorophenyl)-N-(4-(1-piperazinyl)-3-pyridinyl)imidazo[1,5-b]pyridazin-7-amine] | – |
| – | 409 nM | > 1000 nM | Clc1ccccc1-c1ccc2cnc(Nc3cnccc3O[C@@H]3CCCNC3)n2n1 [Example 10, 2-(2-chlorophenyl)-N-(4-((3R)-3-piperidinyloxy)-3-pyridinyl)imidazo[1,5-b]pyridazin-7-amine bis(2,2,2-trifluoroacetate)] | – |
| – | 568 nM | > 1000 nM | N[C@H]1CCN(c2ccncc2Nc2ncc3ccc(-c4c(F)cccc4F)nn23)C1 [Example 13, N-(4-((3S)-3-amino-1-pyrrolidinyl)-3-pyridinyl)-2-(2,6-difluorophenyl)imidazo[1,5-b]pyridazin-7-amine bis(2,2,2-trifluoroacetate)] | – |
| – | 35 nM | 160 nM | N[C@H]1CCCN(c2ncncc2Nc2ncc3ccc(-c4ccccc4F)nn23)C1 [Example 14, (S)-N-(4-(3-aminopiperidin-1-yl)pyrimidin-5-yl)-2-(2-fluorophenyl)imidazo[1,5-b]pyridazin-7-amine] | – |
| – | 192 nM | > 1000 nM | O[C@@H]1CCCN(c2ccncc2Nc2ncc3ccc(-c4ccccc4Cl)nn23)C1 [Example 17, (3R)-1-(3-((2-(2-chlorophenyl)imidazo[1,5-b]pyridazin-7-yl)amino)-4-pyridinyl)-3-piperidinol] | – |
| – | 99 nM | > 1000 nM | O[C@@H]1CCCN(c2ccncc2Nc2ncc3ccc(-c4nccs4)nn23)C1 [Example 18, (3R)-1-(3-((2-(1,3-thiazol-2-yl)imidazo[1,5-b]pyridazin-7-yl)amino)-4-pyridinyl)-3-piperidinol] | – |
| – | 3 nM | 30 nM | O[C@H]1CCCN(c2ccncc2Nc2ncc3ccc(-c4c(F)cccc4F)nn23)C1 [Example 19, (3S)-1-(3-((2-(2,6-difluorophenyl)imidazo[1,5-b]pyridazin-7-yl)amino)-4-pyridinyl)-3-piperidinol] | – |
| – | 25 nM | 99 nM | N[C@H]1CCCN(c2ccncc2Nc2ncc3ccc(Cl)nn23)C1 [Example 24, N-(4-((3S)-3-amino-1-piperidinyl)-3-pyridinyl)-2-chloroimidazo[1,5-b]pyridazin-7-amine] | – |
| – | 534 nM | > 1000 nM | CN(C)c1ccncc1Nc1ncc2ccc(-c3c(F)cccc3F)nn12 [Example 26, N^3-(2-(2,6-difluorophenyl)imidazo[1,5-b]pyridazin-7-yl)-N^4,N^4-dimethyl-3,4-pyridinediamine] | – |
| – | 38 nM | 281 nM | O=c1ccc(-c2ccncc2Nc2ncc3ccc(-c4c(F)cccc4F)nn23)c[nH]1 [Example 28, 3′-((2-(2,6-difluorophenyl)imidazo[1,5-b]pyridazin-7-yl)amino)-3,4′-bipyridin-6(1 H)-one] | – |
| – | 206 nM | > 1000 nM | Nc1cncc(-c2ccncc2Nc2ncc3ccc(-c4c(F)cccc4F)nn23)c1 [Example 29, N3′-(2-(2,6-difluorophenyl)imidazo[1,5-b]pyridazin-7-yl)-3,4′-bipyridine-3′,5-diamine] | – |
| – | – | – | N[C@H]1CCCN(c2ccncc2Nc2ncc3ccc(-c4ncccc4F)nn23)C1 [Example 40, N-(4-((3S)-3-amino-1-piperidinyl)-3-pyridinyl)-2-(3-fluoro-2-pyridinyl)imidazo [1,5-b]pyridazin-7-amine] | IC50 (Pim-2; [4]): 1.1 nM |
| 11.8 nM | – | – | C[C@H]1CN(c2ccncc2Nc2ncc3ccc(-c4c(F)cccc4F)nn23)CCN1 [Example 58, (S)-2-(2,6-difluorophenyl)-N-(4-(3-methylpiperazin-1-yl)pyridin-3-yl)imidazo[1,5-b]pyridazin-7-amine bis(2,2,2-trifluoroacetate)] | IC50 (Pim-2; [4]): 65.9 nM |
| 2 nM | – | – | CN[C@H]1CCCN(c2ccncc2Nc2ncc3ccc(-c4c(F)cccc4F)nn23)C1 [Example 59, (S)-2-(2,6-difluorophenyl)-N-(4-(3-(methylamino)piperidin-1-yl)pyridin-3-yl)imidazo[1,5-b]pyridazin-7-amine] | IC50 (Pim-2; [4]): 31 nM |
| 4.5 nM | – | – | N[C@H]1CCCN(c2ccncc2Nc2nnc3ccc(-c4c(F)cccc4F)nn23)C1 [Example 67, (S)-N-(4-(3-aminopiperidin-1-yl)pyridin-3-yl)-6-(2,6-difluorophenyl)-[1,2,4]triazolo[4,3-b]pyridazin-3-amine 2,2,2-trifluoroacetate] | IC50 (Pim-2; [4]): 35.4 nM |
| 29.6 nM | – | – | Fc1cccc(F)c1-c1ccc2cnc(Nc3cnccc3N3CCCCC3)n2n1 [Example 70, 2-(2,6-difluorophenyl)-N-(4-(piperidin-1-yl)pyridin-3-yl)imidazo[1,5-b]pyridazin-7-amine bis(2,2,2-trifluoroacetate)] | – |
| 38.5 nM | – | – | Fc1cccnc1-c1ccc2cnc(Nc3cnccc3N3CCCCC3)n2n1 [Example 71, 2-(3-Fluoropyridin-2-yl)-N-(4-(piperidin-1-yl)pyridin-3-yl)imidazo[1,5-b]pyridazin-7-amine bis(2,2,2-trifluoroacetate)] | – |
| 33.8 nM | – | – | CC(C)CN(C)c1ccncc1Nc1ncc2ccc(-c3c(F)cccc3F)nn12 [Example 81, N3-(2-(2,6-Difluorophenyl)imidazo[1,5-b]pyridazin-7-yl)-N4-isobutyl-N4-methylpyridine-3,4-diamine] | – |
| – | – | – | Cc1oncc1-c1ccncc1Nc1ncc2ccc(-c3c(F)cccc3F)nn12 [Example 102, 2-(2,6-Difluorophenyl)-N-(4-(5-methylisoxazol-4-yl)pyridin-3-yl)imidazo[1,5-b]pyridazin-7-amine bis(2,2,2-trifluoroacetate)] | IC50 (Pim-2; read-out: Pim-2 IC50 IP): > 1000 nM |

| SMILES | IC50 (Pim-1; [1]) | IC50 (Pim-1; [2]) | IC50 (Pim-2; [3]) | also measured |
| --- | --- | --- | --- | --- |
| N[C@H]1CCCN(c2sncc2Nc2ncc3ccc(-c4c(F)cccc4F)nn23)C1 [Example 31, N-(5-((3S)-3-amino-1-piperidinyl)-4-isothiazolyl)-2-(2,6-difluorophenyl)imidazo[1,5-b]pyridazin-7-amine dihydrochloride] | – | – | 136 nM | IC50 (Pim-1; read-out: Pim_1_IC50): 50 nM |
